Measured values published in publication PMC10613275 (Scientific Reports, 2023).

Legend:
[1] = tested on: NF-κB signal pathway; test: NF-κB signal pathway activation, luciferase reporter in transfected HEK293; assay type: cell-based, human; settings: HEK293, 100 µM (Table 1), 5 h
From the text: […]. HEK293 cells were transiently transfected with reporter plasmid pGL4.32 (luc2P/NF-κB-RE/Hygro, Promega Corporation, Madison, Wisconsin, USA) or pGL4.37 (luc2P/NRF2-ARE/Hygro) using FuGENE (Promega Corporation). Plasmid pEGFP-C1 carrying the gene for green fluorescent protein (GFP) was co-transfected with the reporter plasmids as a normalization plasmid enabling normalization of the signal to transfection level. […] To test the activation of NRF2-ARE pathway, tert-butyl hydroquinone (TBHQ, in the range from 4 to 63 µM) as a positive control or samples (50 µM) were incubated with the cells for 18 h. The fluorescence (488/513 nm) was determined using SpectraMax i3x Multi-Mode Microplate Reader (Molecular Devices, San Jose, California, USA). Subsequent quantification of luciferase activity was performed using the Bright-Glo™ Luciferase Assay System (Promega Corporation) according to the manufacturer’s instructions.

[2] = set-up: method as in PMID 24239523; settings: concentrations up to 500 μM ref 5; cited from earlier work
[3] = tested on: rats; set-up: method as in PMID 32461162; settings: parental rats F0 and F1 in vivo ref 3; cited from earlier work

CC(C=O)Cc1ccc(C(C)(C)C)cc1 (stereo not shown) [Lilial, 3-(4-(tert-butyl)phenyl)-2-methylpropanal]
NF-κB signal pathway activation result [1]: Non activator | NF-κB signal pathway activation result ([1]; listed as lilial): neither the NF-kB (Fig. 7) nor NRF2 (Fig. 8) signalling pathway was activated | Genotoxicity at the chromosomal level (clastogenicity or aneuploidy) or single-strand breaks [2]: did not induce genotoxicity | Effects on fertility and reproductive performance [3]: no adverse effects
